Experimental data taken from patent publication US12077503B2, “Substituted cyclic amides and their use as herbicides” (FMC CORPORATION, priority 2015, dated 2024).

Assays:
Type in all cases: in vivo
[1] = system: velvetleaf (Abutilon theophrasti); assay: Test G Post-Emergence Protocol; settings: Abutilon theophrasti, post-emergence, 312 h, read-out: Velvetleaf damage rating; for pest or weed control at 15.625 g/ha: 15.625 g ai/ha, evaluated after 13 days (100=total damage to plant; 0=no damage to plant); for pest or weed control at 62.5 g/ha: 62.5 g ai/ha; for pest or weed control at 62.5 g/ha / pest or weed control at 250 g/ha: evaluated after 13 days, 100=total damage to plant, 0=no damage to plant; for pest or weed control at 250 g/ha: 250 g ai/ha
How it was run: (§1)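 Post-emergence herbicidal damage, scored visually 0–100 at 13 days. Application at 15.625, 62.5 or 250 g/ha onto 8-day-old plants grown under glasshouse control.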

[2] = system: ivy-leaved morning glory (Ipomoea hederacea); assay: Test G Post-Emergence Protocol; settings: Ipomoea, post-emergence, 312 h, read-out: Morningglory, Ivy-leaved damage rating; for pest or weed control at 15.625 g/ha: 15.625 g ai/ha, evaluated after 13 days (100=total damage to plant; 0=no damage to plant); for pest or weed control at 62.5 g/ha: 62.5 g ai/ha; for pest or weed control at 62.5 g/ha / pest or weed control at 250 g/ha: evaluated after 13 days, 100=total damage to plant, 0=no damage to plant; for pest or weed control at 250 g/ha: 250 g ai/ha
How it was run: as §1

[3] = system: giant foxtail (Setaria faberi); assay: Test G Post-Emergence Protocol; settings: Setaria faberi, post-emergence, 312 h, read-out: Foxtail, Giant damage rating; for pest or weed control at 15.625 g/ha: 15.625 g ai/ha, evaluated after 13 days (100=total damage to plant; 0=no damage to plant); for pest or weed control at 62.5 g/ha: 62.5 g ai/ha; for pest or weed control at 62.5 g/ha / pest or weed control at 250 g/ha: evaluated after 13 days, 100=total damage to plant, 0=no damage to plant; for pest or weed control at 250 g/ha: 250 g ai/ha
How it was run: as §1

[4] = system: barnyardgrass (Echinochloa crus-galli); assay: Test G Post-Emergence Protocol; settings: Echinochloa crus-galli, post-emergence, 312 h, read-out: Barnyardgrass damage rating; for pest or weed control at 15.625 g/ha: 15.625 g ai/ha, evaluated after 13 days (100=total damage to plant; 0=no damage to plant); for pest or weed control at 62.5 g/ha: 62.5 g ai/ha; for pest or weed control at 62.5 g/ha / pest or weed control at 250 g/ha: evaluated after 13 days, 100=total damage to plant, 0=no damage to plant; for pest or weed control at 250 g/ha: 250 g ai/ha
How it was run: as §1

corn (Zea mays) [5] = assay: Test G Post-Emergence Protocol; settings: Zea mays, post-emergence, 312 h, read-out: Corn damage rating; for plant injury at 15.625 g/ha: 15.625 g ai/ha, evaluated after 13 days (100=total damage to plant; 0=no damage to plant); for plant injury at 62.5 g/ha: 62.5 g ai/ha; for plant injury at 62.5 g/ha / plant injury at 250 g/ha: evaluated after 13 days, 100=total damage to plant, 0=no damage to plant; for plant injury at 250 g/ha: 250 g ai/ha
How it was run: as §1

[6] = system: redroot pigweed (Amaranthus retroflexus); assay: Test G Post-Emergence Protocol; settings: Amaranthus retroflexus, post-emergence, 312 h, read-out: Pigweed, Redroot damage rating; for pest or weed control at 15.625 g/ha: 15.625 g ai/ha, evaluated after 13 days (100=total damage to plant; 0=no damage to plant); for pest or weed control at 62.5 g/ha: 62.5 g ai/ha; for pest or weed control at 62.5 g/ha / pest or weed control at 250 g/ha: evaluated after 13 days, 100=total damage to plant, 0=no damage to plant; for pest or weed control at 250 g/ha: 250 g ai/ha
How it was run: as §1

[7] = system: velvetleaf (Abutilon theophrasti); assay: Test G Pre-Emergence Protocol; settings: Abutilon theophrasti, pre-emergence, 312 h, evaluated after 13 days; for pest or weed control at 15.625 g/ha: 15.625 g ai/ha; for pest or weed control at 15.625 g/ha / pest or weed control at 250 g/ha: read-out: Velvetleaf damage rating (100=total damage to plant; 0=no damage to plant); for pest or weed control at 62.5 g/ha: 62.5 g ai/ha, 100=total damage to plant, 0=no damage to plant, read-out: Velvetleaf damage rating; for pest or weed control at 250 g/ha: 250 g ai/ha
How it was run: (§2)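 Scores are visual damage ratings from 0 (no damage) to 100 (total plant kill), taken 13 days after treatment. Compound was sprayed one day post-sowing at 15.625, 62.5 or 250 g/ha in 50:50 acetone/water with 0.5% Tween 20.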

[8] = system: ivy-leaved morning glory (Ipomoea hederacea); assay: Test G Pre-Emergence Protocol; settings: Ipomoea, pre-emergence, 312 h, evaluated after 13 days; for pest or weed control at 15.625 g/ha: 15.625 g ai/ha; for pest or weed control at 15.625 g/ha / pest or weed control at 250 g/ha: read-out: Morningglory, Ivy-leaved damage rating (100=total damage to plant; 0=no damage to plant); for pest or weed control at 62.5 g/ha: 62.5 g ai/ha, 100=total damage to plant, 0=no damage to plant, read-out: Morningglory, Ivy-leaved damage rating; for pest or weed control at 250 g/ha: 250 g ai/ha
How it was run: as §2

[9] = system: giant foxtail (Setaria faberi); assay: Test G Pre-Emergence Protocol; settings: Setaria faberi, pre-emergence, 312 h, evaluated after 13 days; for pest or weed control at 15.625 g/ha: 15.625 g ai/ha; for pest or weed control at 15.625 g/ha / pest or weed control at 250 g/ha: read-out: Foxtail, Giant damage rating (100=total damage to plant; 0=no damage to plant); for pest or weed control at 62.5 g/ha: 62.5 g ai/ha, 100=total damage to plant, 0=no damage to plant, read-out: Foxtail, Giant damage rating; for pest or weed control at 250 g/ha: 250 g ai/ha
How it was run: as §2

[10] = system: barnyardgrass (Echinochloa crus-galli); assay: Test G Pre-Emergence Protocol; settings: Echinochloa crus-galli, pre-emergence, 312 h, evaluated after 13 days; for pest or weed control at 15.625 g/ha: 15.625 g ai/ha; for pest or weed control at 15.625 g/ha / pest or weed control at 250 g/ha: read-out: Barnyardgrass damage rating (100=total damage to plant; 0=no damage to plant); for pest or weed control at 62.5 g/ha: 62.5 g ai/ha, 100=total damage to plant, 0=no damage to plant, read-out: Barnyardgrass damage rating; for pest or weed control at 250 g/ha: 250 g ai/ha
How it was run: as §2

corn (Zea mays) [11] = assay: Test G Pre-Emergence Protocol; settings: Zea mays, pre-emergence, 312 h, evaluated after 13 days; for plant injury at 15.625 g/ha: 15.625 g ai/ha; for plant injury at 15.625 g/ha / plant injury at 250 g/ha: read-out: Corn damage rating (100=total damage to plant; 0=no damage to plant); for plant injury at 62.5 g/ha: 62.5 g ai/ha, 100=total damage to plant, 0=no damage to plant, read-out: Corn damage rating; for plant injury at 250 g/ha: 250 g ai/ha
How it was run: as §2

[12] = system: redroot pigweed (Amaranthus retroflexus); assay: Test G Pre-Emergence Protocol; settings: Amaranthus retroflexus, pre-emergence, 312 h, evaluated after 13 days; for pest or weed control at 15.625 g/ha: 15.625 g ai/ha; for pest or weed control at 15.625 g/ha / pest or weed control at 250 g/ha: read-out: Pigweed, Redroot damage rating (100=total damage to plant; 0=no damage to plant); for pest or weed control at 62.5 g/ha: 62.5 g ai/ha, 100=total damage to plant, 0=no damage to plant, read-out: Pigweed, Redroot damage rating; for pest or weed control at 250 g/ha: 250 g ai/ha
How it was run: as §2

SMILES	pest or weed control at 15.625 g/ha [1]	pest or weed control at 62.5 g/ha [1]	pest or weed control at 250 g/ha [1]	pest or weed control at 15.625 g/ha [2]	pest or weed control at 62.5 g/ha [2]	pest or weed control at 250 g/ha [2]	pest or weed control at 15.625 g/ha [3]	pest or weed control at 62.5 g/ha [3]	pest or weed control at 250 g/ha [3]	pest or weed control at 15.625 g/ha [4]	pest or weed control at 62.5 g/ha [4]	pest or weed control at 250 g/ha [4]	plant injury at 15.625 g/ha (corn (Zea mays) [5])	plant injury at 62.5 g/ha (corn (Zea mays) [5])	plant injury at 250 g/ha (corn (Zea mays) [5])	pest or weed control at 15.625 g/ha [6]	pest or weed control at 62.5 g/ha [6]	pest or weed control at 250 g/ha [6]	pest or weed control at 15.625 g/ha [7]	pest or weed control at 62.5 g/ha [7]	further results
CN1C[C@H](c2cc(C(C)(C)C)ncn2)[C@@H](C(=O)Nc2ccc(F)c(F)c2F)C1=O (racemic) [Compound 1668]	0%	0%	0%	0%	0%	0%	0%	0%	10%	0%	0%	0%	0%	0%	0%	0%	0%	0%	0%	0%	pest or weed control at 250 g/ha [7]: 0%; pest or weed control at 15.625 g/ha [8]: 0%; pest or weed control at 62.5 g/ha [8]: 0%; pest or weed control at 15.625 g/ha [9]: 0%; pest or weed control at 62.5 g/ha [9]: 0%; pest or weed control at 250 g/ha [9]: 20%; pest or weed control at 15.625 g/ha [10]: 0%; pest or weed control at 62.5 g/ha [10]: 0%; pest or weed control at 250 g/ha [10]: 20%; plant injury at 15.625 g/ha (corn (Zea mays) [11]): 0%; plant injury at 62.5 g/ha (corn (Zea mays) [11]): 0%; plant injury at 250 g/ha (corn (Zea mays) [11]): 0%; pest or weed control at 15.625 g/ha [12]: 0%; pest or weed control at 62.5 g/ha [12]: 0%; pest or weed control at 250 g/ha [12]: 0%
CN1C[C@H](c2ccc(C(F)(F)F)cc2)[C@@H](C(=O)Nc2cccc3c2C(=O)OC3)C1=O (racemic) [Compound 1669]	0%	0%	0%	0%	20%	60%	30%	50%	80%	0%	30%	70%	10%	0%	0%	0%	0%	30%	0%	0%	pest or weed control at 250 g/ha [7]: 10%; pest or weed control at 15.625 g/ha [8]: 0%; pest or weed control at 62.5 g/ha [8]: 0%; pest or weed control at 250 g/ha [8]: 10%; pest or weed control at 15.625 g/ha [9]: 0%; pest or weed control at 62.5 g/ha [9]: 20%; pest or weed control at 250 g/ha [9]: 60%; pest or weed control at 15.625 g/ha [10]: 0%; pest or weed control at 62.5 g/ha [10]: 0%; pest or weed control at 250 g/ha [10]: 10%; plant injury at 15.625 g/ha (corn (Zea mays) [11]): 0%; plant injury at 62.5 g/ha (corn (Zea mays) [11]): 0%; plant injury at 250 g/ha (corn (Zea mays) [11]): 0%; pest or weed control at 15.625 g/ha [12]: 0%; pest or weed control at 62.5 g/ha [12]: 10%; pest or weed control at 250 g/ha [12]: 20%
CN1C[C@H](c2ccc(C(F)(F)F)cc2)[C@@H](C(=O)Nc2ccc(C(F)(F)F)cn2)C1=O (racemic) [Compound 1672]	0%	0%	0%	0%	0%	0%	0%	0%	0%	0%	0%	0%	0%	0%	10%	0%	30%	40%	0%	0%	pest or weed control at 250 g/ha [7]: 0%; pest or weed control at 15.625 g/ha [8]: 0%; pest or weed control at 62.5 g/ha [8]: 0%; pest or weed control at 250 g/ha [8]: 0%; pest or weed control at 15.625 g/ha [9]: 0%; pest or weed control at 62.5 g/ha [9]: 0%; pest or weed control at 250 g/ha [9]: 0%; pest or weed control at 15.625 g/ha [10]: 0%; pest or weed control at 62.5 g/ha [10]: 0%; pest or weed control at 250 g/ha [10]: 0%; plant injury at 15.625 g/ha (corn (Zea mays) [11]): 0%; plant injury at 62.5 g/ha (corn (Zea mays) [11]): 0%; plant injury at 250 g/ha (corn (Zea mays) [11]): 0%; pest or weed control at 15.625 g/ha [12]: 0%; pest or weed control at 62.5 g/ha [12]: 0%; pest or weed control at 250 g/ha [12]: 0%
